Measured values taken from US8410309B2, “Phenoxy carboxylic acid compounds and compositions for delivering active agents” (Emisphere Technologies, Inc., priority 1999, dated 2013).
Values joined by “and” are separate entries in the source; they are usually repeats but may differ in a detail not shown here. Equal values may be shown once.

Legend:
[1] = Heparin oral/intracolonic delivery, clotting time by activated partial thromboplastin time (APTT); format: in vivo, Sprague-Dawley rats; settings: rats, baseline about 20 seconds
Experimental: Oral gavage (PO) and/or intracolonic (IC) dosing solutions containing a delivery agent compound and heparin sodium USP were prepared in 25% aqueous propylene glycol. […] This dry mixture was dissolved in 25% v/v aqueous propylene glycol, vortexed, and placed in a sonicator (about 37° C.). The pH was adjusted to about 7 (6.5 to 8.5) with aqueous NaOH (2N). The dosing solution was sonicated to produce a clear solution. The final volume was adjusted to about 3.0 ml.
(§1) The typical dosing and sampling protocols were as follows. […] The dosing solution was expressed slowly into the colon by pressing the syringe plunger.
Citrated blood samples were collected by cardiac puncture following the administration of ketamine (88 mg/kg), typically at 0.25, 0.5, 1.0 and 1.5 hours after dosing. Heparin absorption was verified by an increase in clotting time measured by the activated partial thromboplastin time (APTT) according to the method of Henry, J. B., Clinical Diagnosis and Management by Laboratory Methods, Philadelphia, Pa., W.B. Saunders (1979). Previous studies indicated baseline values of about 20 seconds.

[2] = Low molecular weight heparin (LMWH) oral/intracolonic delivery, plasma LMWH by anti-Factor Xa assay; format: in vivo, Sprague-Dawley rats; settings: IC, rats, LMWH 750 IU/kg, 1 ml/kg
Experimental: Oral dosing (PO) and/or intracolonic (IC) compositions containing a delivery agent compound and low molecular weight heparin (LMWH) were prepared in 25% aqueous propylene glycol. […] Typically, the delivery agent compound and LMWH (Parnaparin, 91 IU/mg average molecular weight about 5,000, available from Opocrin, Modena, Italy) (typically 90-105 IU/mg, average molecular weight about 5,000) were mixed by vortex as dry powders. This dry mixture was dissolved in 25% v/v aqueous propylene glycol, vortexed, and placed in a sonicator (37° C.) to produce a clear solution. The pH was adjusted to about 7 (6.5-8.5) with 2N aqueous NaOH. The dosing solution was sonicated to produce a clear solution. The final volume was adjusted to 3.0 ml.
as §1
Citrated blood samples were collected by cardiac puncture following the administration of ketamine (88 mg/kg), typically at 0.5, 1.0, 2.0, 3.0 and 4.0 hours after dosing. LMWH absorption was verified by an increase in plasma LMWH measured by the anti-Factor Xa assay CHROMOSTRATE™ Heparin anti-Xa assay (available from Organon Teknika Corporation, Durham, N.C.). […] The peak of these mean plasma LMWH concentrations is reported below in Table 5.

[3] = Interferon oral delivery, serum IFN by immunoassay; format: in vivo, Sprague-Dawley rats; settings: rats, delivery agent compound 200 mg/kg, IFN 1 mg/kg, 1 ml/kg
Experimental: Dosing solutions of delivery agent compound and human interferon (IFN) were prepared in deionized water. […] This mixture was vortexed and placed in a sonicator (about 37° C.). The pH was adjusted to about 7.0 to 8.5 with aqueous NaOH. The mixture was vortexed to produce a uniform suspension or solution, also using sonication and heat if necessary.
(§2) The typical dosing and sampling protocols were as follows.
Serum IFN concentrations were quantified using Cytoscreen Immunoassay Kit for human IFN-alpha (catalog # KHC4012 from Biosource International, Camarillo, Calif.). Previous studies indicated baseline values of about zero.

[4] = Insulin oral delivery, serum human insulin by ELISA; settings: rats
Experimental: Oral dosing (PO) compositions of delivery agent compound and human zinc insulin (minimum 26 IU/mg available from Calbiochem—Novabiochem Corp, La Jolla, Calif.) were prepared in deionized water. […] The pH was adjusted to about 7 to 8.5 with NaOH or HCl. […] The final delivery agent compound dose, insulin dose and dose volume amounts are listed below in Table 8.
as §2
Serum insulin levels were determined with an Insulin ELISA Test Kit (Kit # DSL-10-1600 from Diagnostic Systems Laboratories, Inc., Webster, Tex.), modifying the standard protocol in order to optimize the sensitivity and linear range of the standard curve for the volumes and concentrations of the samples used in the present protocol. […] The five values for each time point were averaged and the results plotted as serum insulin concentration versus time.

[5] = Insulin pulmonary delivery, serum insulin by ELISA, ratio to insulin-alone control; format: in vivo, Sprague-Dawley rats; settings: rats; for Cmax (serum insulin): Table 9 pulmonary delivery, volume 1 ml/kg, delivery agent compound 3 mg/kg, insulin 100 mg/kg (so in the source)
Experimental: Dosing compositions of delivery agent compound and human insulin in water were prepared. Typically, to 1.5 mg of delivery agent compound was added deionized water to bring the volume to 1.0 ml, and the solution was vortexed. […] The pH was adjusted to between about 7.0 to 8.5 with NaOH or HCl. […] The final delivery agent compound dose, insulin dose and volume dose amounts are listed below in Table 9.
The typical dosing and sampling protocols were as follows. […] A control group of five animals was dosed insulin alone. A tracheal instillator for rodents, equipped with light (available from Penn Century, Inc., Pittsburgh, Pa.) was filled with dosing solution and inserted down the throat until the needle went into the trachea (confirmed visually). The dosing solution was administered by pressing the plunger.
Blood samples from each animal were collected serially from the tail artery, typically at 5, 15, 30, 60 and 120 minutes after dosing. […] The ratio of the area under the curve (AUC) for the test group versus that of the control group is reported below. The ratio of the maximum serum insulin concentration (Cmax) for the test group versus that of the control group is also reported below.

[6] = Salmon calcitonin (sCT) oral delivery, serum sCT by EIA; settings: rats, delivery agent compound dose 150 mg/kg, sCT dose 30 μg/kg, dose volume 1 (ml)
[7] = Recombinant human growth hormone (rhGH) oral delivery, serum rhGH by immunoassay; settings: oral gavage, rats; delivery agent compound 200 mg/kg, rhGH 3 mg/kg, volume dose 1 ml
Experimental: Oral gavage (PO) dosing solutions of delivery agent compound and rhGH in phosphate buffer were prepared by mixing. A solution of the delivery agent compound was made either with the sodium salt of the delivery agent compound or by converting the free acid to its sodium salt.
The typical dosing and sampling protocols were as follows. Male Sprague-Dawley rats weighing 200-250 g were fasted for 24 hours and administered ketamine (44 mg/kg) and chlorpromazine (1.5 mg/kg) 15 minutes prior to dosing and again as needed to maintain anesthesia. A dosing group of five animals was administered one of the dosing solutions. An 11 cm Rusch 8 French catheter was adapted to a 1 ml syringe with a pipette tip. The syringe was filled with dosing solution by drawing the solution through the catheter, which was then wiped dry. The catheter was placed down the esophagus leaving 1 cm of tubing past the incisors. The dosing solution was administered by pressing the syringe plunger.
Blood samples were collected serially from the tail artery typically at time=15, 30, 45, 60 and 90 minutes. The five samples from each time period were pooled (except for those samples for which standard deviation (SD) and standard error (SE) are reported). Serum rHGH concentrations were quantified by an rHGH immunoassay test kit (Kit # K1F4015 from Genzyme Corporation Inc., Cambridge, Mass.).

[8] = Daptomycin oral delivery, plasma daptomycin by HPLC; format: in vivo, Sprague-Dawley rats; settings: rats, delivery agent compound dose 200 mg/kg, daptomycin dose 50 mg/kg, volume dose 1 mL/kg
Experimental: Dosing solutions containing a delivery agent compound and daptomycin (Cubist Pharmaceuticals, Cambridge, Mass.) were prepared in 0.9% normal saline. […] This mixture was vortexed and placed in a sonicator (about 37° C.). The pH was adjusted to about 7.0-7.5 with aqueous HCl or NaOH. […] The mixture was vortexed to produce a uniform solution, also using sonication if necessary. The delivery agent compound solution was mixed with daptomycin from a stock solution (200 mg daptomycin/mL in 0.9% normal saline and the pH adjusted, if necessary, to between 6.0-7.0 with NaOH or HCl). The stock solution was stored frozen (−20° C.) wrapped in foil, then thawed and warmed gradually to about 25° C. before using. The delivery agent-daptomycin mixture was vortexed at low speed to produce a uniform solution. The pH was adjusted to about 7.0-7.5 with aqueous NaOH. The solution was then diluted with 0.9% normal saline to the desired volume (usually 2.0 ml) and concentration and stored wrapped in foil before use.
as §2
Heparinized rat blood samples were collected via the ventral tail artery, typically at 0.25, 0.5, 0.75, 1.0, 2.0, and 4.0 hours after dosing, and stored on ice. Blood samples were then spun (centrifuged) at 11,500 rpm for 4 minutes at 4° C. to obtain the plasma (supernatant), which was stored at −70° C. The plasma daptomycin concentrations were measured by isocratic reversed phase HPLC, keeping samples at 4° C. during analysis. Blank plasma studies show baseline values of zero.
Daptomycin blood concentrations results from the individual animals in each dosage group were averaged for each time point.

[9] = IC (intracolonic), delivery agent compound 50 mg/kg, heparin 25 mg/kg, volume dose 1 ml
[10] = delivery agent compound 25 mg/kg
[11] = delivery agent compound 100 mg/kg, insulin 3 mg/kg, 1 ml/kg
[12] = delivery agent compound 200 mg/kg, insulin 0.5 mg/kg, 1 ml/kg
[13] = delivery agent compound 50 mg/kg

Row | SMILES | Mean Peak Serum [IFN] ± SD [3] [ng/mL] | Mean Peak Serum [INS] ± SD [4, 11] [μU/ml] | Cmax (serum insulin) [5] [μU/ml] | Mean Peak Serum [rhGH] [7] [ng/mL] | Mean Peak APTT ± SD [1, 9] | also measured
1 | CC(=O)c1ccccc1OCc1ccc(C(=O)O)cc1 [Compound 1] | 17.357 ± 38 | 74.237 ± 1144.49 | 74.237 |  | 130.84 ± 118.18 s and 231.34 s | Mean Peak Plasma LMWH Concentration ± SD [2, 10]: 1.022 ± 0.432 IU/ml; Mean Peak Plasma LMWH Concentration ± SD ([2]; delivery agent compound 50 mg/kg, 50 mg/kg): 1.734 ± 0.192 IU/ml and 1.038 ± 0.338 IU/ml; Mean Peak Serum sCT (pg/ml ± SD) (SE) ([6]; 150 mg/kg): 317 ± 405 pg/mL and 398 ± 237 pg/mL and 410 ± 471 pg/mL
2 | O=C(O)CCCCCCOc1ccccc1O [Compound 6, (2-hydroxyphenyl)-7-oxyheptanoic acid] | 0.5696 ± 0.8 |  |  |  | 157.4 ± 33.7 s and 99.8 ± 50.6 s | Mean Peak APTT ± SD ([1]; PO (oral gavage), delivery agent compound 300 mg/kg, heparin 100 mg/kg, volume dose 3 ml): 193 ± 61.2 s; Mean Peak Plasma LMWH Concentration ± SD [2, 10]: 0.47 ± 0.17 IU/ml; Mean Peak Serum [INS] ± SD [4, 12]: 129.5 ± 131.5 μU/ml
3 | CC(=O)c1ccccc1OCCCCC(=O)O [Compound 10] |  | 63.5884 ± 129.23 | 63.5884 | 34.3 | 81.8 ± 7 s and 63.5 s | Mean Peak Plasma LMWH Concentration ± SD [2, 13]: 0.088 ± 0.121 IU/ml
4 | O=C(O)C=Cc1ccccc1OCCCCCCCC(=O)O [Compound 25] |  | 47.2162 ± 31.43 | 47.2162 | 0 |  | Mean Peak Serum sCT (pg/ml ± SD) (SE) [6]: 53 ± 77 pg/mL
5 | O=C(O)CCCCCCCCCOc1cccc(O)c1 [Compound 44] |  |  |  |  |  | Mean Peak Serum [INS] ± SD ([4]; delivery agent compound 100 mg/kg, insulin 3 mg/kg, 0.5 ml/kg): 97.49 ± 134.1 μU/ml; Mean Ratio of AUC for insulin + compound versus AUC for insulin alone ([5]; pulmonary, volume 0.4 ml/kg, delivery agent compound 0.03 mg/kg, insulin 0.3 mg/kg (so in the source)): 0.76; Mean Peak Serum sCT (pg/ml ± SD) (SE) [6]: 188 ± 184 pg/mL

More lines, main results first:

Row | Mean Peak Serum [IFN] ± SD [3] [ng/mL] | Mean Peak Serum [INS] ± SD [4, 11] [μU/ml] | Cmax (serum insulin) [5] [μU/ml] | Mean Peak Serum [rhGH] [7] [ng/mL] | SMILES | Mean Peak APTT ± SD [1, 9] | also measured
6 |  |  |  | 19.8 | O=C(O)CCCOc1ccccc1 [Compound 14] |  | Mean plasma Cmax [daptomycin] ± SD [8]: 14200 ± 24840 ng/mL
7 | 0 |  |  | 0 | O=C(O)CCCCCCCOc1ccccc1C(=O)O [Compound 32] | 26.5 ± 2.3 s | Mean Peak Plasma LMWH Concentration ± SD [2, 13]: 0.07 ± 0.01 IU/ml; Mean Peak Serum [INS] ± SD [4, 12]: 3.12 ± 2.26 μU/ml; Mean Peak Serum [INS] ± SD ([4]; delivery agent compound 200 mg/kg, insulin 3 mg/kg, 1 ml/kg): 6.38 ± 4.42 μU/ml; Mean Peak Serum sCT (pg/ml ± SD) (SE) ([6]; 150 mg/kg): 175 ± 148 pg/mL and 103 ± 75 pg/mL and 187 ± 135 pg/mL
